Reference: publication PMC3399817 (PLoS ONE, 2012)

Assays:
Test in all cases: KINOMEscan
Type in all cases: binding
[1] = biological target: T1, TIE1 (Homo sapiens, UniProt P35590); conditions: TIE1, 1 uM
T1 construct: purchased Ambit KINOMEscan (DiscoverX)
Summary of the method: (§1)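 Substrate-binding inhibition measured with compound present at 1 μM, single concentration, to pick out affected kinases.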

[2] = biological target: T2, PIM1 (Homo sapiens, UniProt P11309); conditions: PIM1, 1 uM
T2 construct: purchased Ambit KINOMEscan (DiscoverX)
Summary of the method: as §1

[3] = biological target: T3, WEE1 (Homo sapiens, UniProt P30291); conditions: WEE1, 1 uM
T3 construct: purchased Ambit KINOMEscan (DiscoverX)
Summary of the method: as §1

[4] = biological target: T4, MLK2 (Homo sapiens, UniProt Q02779); conditions: MLK2, 1 uM
T4 construct: purchased Ambit KINOMEscan (DiscoverX)
Summary of the method: as §1

[5] = biological target: T5, TLK1 (Homo sapiens, UniProt Q9UKI8); conditions: TLK1, 1 uM
T5 construct: purchased Ambit KINOMEscan (DiscoverX)
Summary of the method: as §1

[6] = biological target: T6, FER (Homo sapiens, UniProt P16591); conditions: 1 uM
T6 construct: purchased Ambit KINOMEscan (DiscoverX)
Summary of the method: as §1

[7] = biological target: T7, LIMK2 (Homo sapiens, UniProt P53671); conditions: LIMK2, 1 uM
T7 construct: purchased Ambit KINOMEscan (DiscoverX)
Summary of the method: as §1

[8] = biological target: T8, MUSK (Homo sapiens, UniProt O15146); conditions: 1 uM
T8 construct: purchased Ambit KINOMEscan (DiscoverX)
Summary of the method: as §1

[9] = biological target: T9, QSK (Homo sapiens, UniProt Q9Y2K2); conditions: 1 uM
T9 construct: purchased Ambit KINOMEscan (DiscoverX)
Summary of the method: as §1

[10] = biological target: T10, MYO3B (Homo sapiens, UniProt Q8WXR4); conditions: 1 uM
T10 construct: purchased Ambit KINOMEscan (DiscoverX)
Summary of the method: as §1

[11] = biological target: T11, RPS6KA5(Kin.Dom.1-N-terminal) (Homo sapiens, UniProt O75582); conditions: 1 uM
T11 construct: RPS6KA5(Kin.Dom.1-N-terminal); purchased Ambit KINOMEscan (DiscoverX)
Summary of the method: as §1

[12] = biological target: T12, DYRK1A (Homo sapiens, UniProt Q13627); conditions: 1 uM
T12 construct: purchased Ambit KINOMEscan (DiscoverX)
Summary of the method: as §1

[13] = biological target: T13, TXK (Homo sapiens, UniProt P42681); conditions: 1 uM
T13 construct: purchased Ambit KINOMEscan (DiscoverX)
Summary of the method: as §1

[14] = biological target: T14, TAOK1 (Homo sapiens, UniProt Q7L7X3); conditions: TAOK1, 1 uM
T14 construct: purchased Ambit KINOMEscan (DiscoverX)
Summary of the method: as §1

[15] = biological target: T15, MAP3K3 (Homo sapiens, UniProt Q99759); conditions: MAP3K3, 1 uM
T15 construct: purchased Ambit KINOMEscan (DiscoverX)
Summary of the method: as §1

[16] = biological target: T16, PRKD2 (Homo sapiens, UniProt Q9BZL6); conditions: PRKD2, 1 uM
T16 construct: purchased Ambit KINOMEscan (DiscoverX)
Summary of the method: as §1

[17] = biological target: T17, TSSK1B (Homo sapiens, UniProt Q9BXA7); conditions: 1 uM
T17 construct: purchased Ambit KINOMEscan (DiscoverX)
Summary of the method: as §1

[18] = biological target: T18, MRCKB (Homo sapiens, UniProt Q9Y5S2); conditions: 1 uM
T18 construct: purchased Ambit KINOMEscan (DiscoverX)
Summary of the method: as §1

[19] = biological target: T19, ERK8 (Homo sapiens, UniProt Q8TD08); conditions: ERK8, 1 uM
T19 construct: purchased Ambit KINOMEscan (DiscoverX)
Summary of the method: as §1

[20] = biological target: T20, PIK3CA (Homo sapiens, UniProt P42336); conditions: 1 uM
T20 construct: purchased Ambit KINOMEscan (DiscoverX)
Summary of the method: as §1

[21] = biological target: T21, DYRK2 (Homo sapiens, UniProt Q92630); conditions: DYRK2, 1 uM
T21 construct: purchased Ambit KINOMEscan (DiscoverX)
Summary of the method: as §1

[22] = biological target: T22, AKT1 (Homo sapiens, UniProt P31749); conditions: AKT1, 1 uM
T22 construct: purchased Ambit KINOMEscan (DiscoverX)
Summary of the method: as §1

[23] = biological target: T23, YSK4 (Homo sapiens, UniProt Q56UN5); conditions: YSK4, 1 uM
T23 construct: purchased Ambit KINOMEscan (DiscoverX)
Summary of the method: as §1

[24] = biological target: T24, PIK3CA(Q546K) (Homo sapiens, UniProt P42336, Q546K); conditions: 1 uM
T24 construct: purchased Ambit KINOMEscan (DiscoverX)
Summary of the method: as §1

[25] = biological target: T25, PAK4 (Homo sapiens, UniProt O96013); conditions: PAK4, 1 uM
T25 construct: purchased Ambit KINOMEscan (DiscoverX)
Summary of the method: as §1

[26] = biological target: T26, DMPK (Homo sapiens, UniProt Q09013); conditions: 1 uM
T26 construct: purchased Ambit KINOMEscan (DiscoverX)
Summary of the method: as §1

[27] = biological target: T27, ERK4 (Homo sapiens, UniProt P31152); conditions: ERK4, 1 uM
T27 construct: purchased Ambit KINOMEscan (DiscoverX)
Summary of the method: as §1

[28] = biological target: T28, CAMK1D (Homo sapiens, UniProt Q8IU85); conditions: 1 uM
T28 construct: purchased Ambit KINOMEscan (DiscoverX)
Summary of the method: as §1

[29] = biological target: T29, CAMKK1 (Homo sapiens, UniProt Q8N5S9); conditions: CAMKK1, 1 uM
T29 construct: purchased Ambit KINOMEscan (DiscoverX)
Summary of the method: as §1

[30] = biological target: T30, JNK2 (Homo sapiens, UniProt P45984); conditions: JNK2, 1 uM
T30 construct: purchased Ambit KINOMEscan (DiscoverX)
Summary of the method: as §1

[31] = biological target: T31, FGFR2 (Homo sapiens, UniProt P21802); conditions: FGFR2, 1 uM
T31 construct: purchased Ambit KINOMEscan (DiscoverX)
Summary of the method: as §1

[32] = biological target: T32, ASK2 (Homo sapiens, UniProt O95382); conditions: ASK2, 1 uM
T32 construct: purchased Ambit KINOMEscan (DiscoverX)
Summary of the method: as §1

[33] = biological target: T33, EPHB6 (Homo sapiens, UniProt O15197); conditions: EPHB6, 1 uM
T33 construct: purchased Ambit KINOMEscan (DiscoverX)
Summary of the method: as §1

[34] = biological target: T34, RIPK4 (Homo sapiens, UniProt P57078); conditions: RIPK4, 1 uM
T34 construct: purchased Ambit KINOMEscan (DiscoverX)
Summary of the method: as §1

[35] = biological target: T35, PAK7 (Homo sapiens, UniProt Q9P286); conditions: PAK7, 1 uM
T35 construct: purchased Ambit KINOMEscan (DiscoverX)
Summary of the method: as §1

[36] = biological target: T36, CDK7 (Homo sapiens, UniProt P50613); conditions: CDK7, 1 uM
T36 construct: purchased Ambit KINOMEscan (DiscoverX)
Summary of the method: as §1

[37] = biological target: T37, MAK (Homo sapiens, UniProt P20794); conditions: 1 uM
T37 construct: purchased Ambit KINOMEscan (DiscoverX)
Summary of the method: as §1

[38] = biological target: T38, BMPR1A (Homo sapiens, UniProt P36894); conditions: 1 uM
T38 construct: purchased Ambit KINOMEscan (DiscoverX)
Summary of the method: as §1

[39] = biological target: T39, CTK (Homo sapiens, UniProt P42679); conditions: 1 uM
T39 construct: purchased Ambit KINOMEscan (DiscoverX)
Summary of the method: as §1

[40] = biological target: T40, PHKG2 (Homo sapiens, UniProt P15735); conditions: PHKG2, 1 uM
T40 construct: purchased Ambit KINOMEscan (DiscoverX)
Summary of the method: as §1

T40 sequence (P15735 whole entry): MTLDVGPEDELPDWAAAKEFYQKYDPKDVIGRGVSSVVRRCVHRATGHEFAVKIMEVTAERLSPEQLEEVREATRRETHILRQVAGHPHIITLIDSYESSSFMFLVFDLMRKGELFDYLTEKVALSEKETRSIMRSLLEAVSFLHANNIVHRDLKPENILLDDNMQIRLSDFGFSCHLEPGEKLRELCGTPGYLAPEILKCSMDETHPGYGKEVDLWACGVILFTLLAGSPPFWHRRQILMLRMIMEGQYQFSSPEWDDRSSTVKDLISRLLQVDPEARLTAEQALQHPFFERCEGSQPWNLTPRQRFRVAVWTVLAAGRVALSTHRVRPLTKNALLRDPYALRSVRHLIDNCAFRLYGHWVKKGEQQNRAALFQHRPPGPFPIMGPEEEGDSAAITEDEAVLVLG
T39 sequence (P42679 whole entry): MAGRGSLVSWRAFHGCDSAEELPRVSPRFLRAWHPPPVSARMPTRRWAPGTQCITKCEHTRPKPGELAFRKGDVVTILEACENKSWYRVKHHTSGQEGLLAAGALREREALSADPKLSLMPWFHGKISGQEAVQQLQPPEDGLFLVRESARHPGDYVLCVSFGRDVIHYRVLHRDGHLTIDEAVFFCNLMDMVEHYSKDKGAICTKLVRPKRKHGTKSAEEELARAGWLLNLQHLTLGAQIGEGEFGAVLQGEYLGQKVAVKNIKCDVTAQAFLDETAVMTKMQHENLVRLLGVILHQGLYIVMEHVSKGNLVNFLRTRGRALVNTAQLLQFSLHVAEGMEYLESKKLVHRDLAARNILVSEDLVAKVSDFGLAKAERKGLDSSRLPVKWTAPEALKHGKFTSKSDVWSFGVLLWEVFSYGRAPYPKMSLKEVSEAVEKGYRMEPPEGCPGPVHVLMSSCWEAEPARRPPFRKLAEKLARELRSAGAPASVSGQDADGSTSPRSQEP
T33 sequence (O15197 32-1021): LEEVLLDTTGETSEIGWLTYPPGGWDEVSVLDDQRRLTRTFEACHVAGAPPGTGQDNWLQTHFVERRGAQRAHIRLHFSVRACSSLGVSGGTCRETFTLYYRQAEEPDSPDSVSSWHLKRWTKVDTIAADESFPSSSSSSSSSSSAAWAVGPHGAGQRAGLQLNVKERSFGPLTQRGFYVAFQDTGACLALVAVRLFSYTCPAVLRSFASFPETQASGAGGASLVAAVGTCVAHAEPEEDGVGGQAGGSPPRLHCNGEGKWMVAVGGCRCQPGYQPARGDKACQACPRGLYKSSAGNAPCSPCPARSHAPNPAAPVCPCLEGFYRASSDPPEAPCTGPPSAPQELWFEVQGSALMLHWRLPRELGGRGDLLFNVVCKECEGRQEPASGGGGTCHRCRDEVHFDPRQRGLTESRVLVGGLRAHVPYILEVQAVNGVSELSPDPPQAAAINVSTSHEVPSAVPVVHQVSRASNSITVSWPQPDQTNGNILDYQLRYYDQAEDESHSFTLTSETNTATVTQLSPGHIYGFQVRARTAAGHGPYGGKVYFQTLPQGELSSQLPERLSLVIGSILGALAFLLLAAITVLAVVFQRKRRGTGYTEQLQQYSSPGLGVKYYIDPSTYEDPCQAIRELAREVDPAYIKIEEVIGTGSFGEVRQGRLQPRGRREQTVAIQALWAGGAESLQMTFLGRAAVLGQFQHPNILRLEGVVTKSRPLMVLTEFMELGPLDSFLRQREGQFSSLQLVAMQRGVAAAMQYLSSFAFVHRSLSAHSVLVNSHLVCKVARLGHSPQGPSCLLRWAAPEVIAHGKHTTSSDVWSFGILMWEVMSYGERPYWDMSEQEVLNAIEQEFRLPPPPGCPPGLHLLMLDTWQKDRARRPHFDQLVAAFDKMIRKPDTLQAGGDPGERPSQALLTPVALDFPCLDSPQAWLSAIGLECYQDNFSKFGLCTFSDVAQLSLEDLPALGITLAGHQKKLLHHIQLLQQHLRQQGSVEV
T36 sequence (P50613 whole entry): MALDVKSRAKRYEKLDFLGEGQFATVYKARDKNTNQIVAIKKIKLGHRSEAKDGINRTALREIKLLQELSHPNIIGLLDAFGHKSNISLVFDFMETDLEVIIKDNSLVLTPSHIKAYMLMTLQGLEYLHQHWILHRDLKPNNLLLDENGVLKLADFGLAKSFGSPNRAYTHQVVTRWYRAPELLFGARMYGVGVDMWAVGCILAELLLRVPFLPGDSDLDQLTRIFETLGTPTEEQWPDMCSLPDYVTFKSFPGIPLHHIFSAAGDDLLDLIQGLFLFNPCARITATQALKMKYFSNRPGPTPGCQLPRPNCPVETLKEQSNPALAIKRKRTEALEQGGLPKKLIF
T21 sequence (Q92630 whole entry): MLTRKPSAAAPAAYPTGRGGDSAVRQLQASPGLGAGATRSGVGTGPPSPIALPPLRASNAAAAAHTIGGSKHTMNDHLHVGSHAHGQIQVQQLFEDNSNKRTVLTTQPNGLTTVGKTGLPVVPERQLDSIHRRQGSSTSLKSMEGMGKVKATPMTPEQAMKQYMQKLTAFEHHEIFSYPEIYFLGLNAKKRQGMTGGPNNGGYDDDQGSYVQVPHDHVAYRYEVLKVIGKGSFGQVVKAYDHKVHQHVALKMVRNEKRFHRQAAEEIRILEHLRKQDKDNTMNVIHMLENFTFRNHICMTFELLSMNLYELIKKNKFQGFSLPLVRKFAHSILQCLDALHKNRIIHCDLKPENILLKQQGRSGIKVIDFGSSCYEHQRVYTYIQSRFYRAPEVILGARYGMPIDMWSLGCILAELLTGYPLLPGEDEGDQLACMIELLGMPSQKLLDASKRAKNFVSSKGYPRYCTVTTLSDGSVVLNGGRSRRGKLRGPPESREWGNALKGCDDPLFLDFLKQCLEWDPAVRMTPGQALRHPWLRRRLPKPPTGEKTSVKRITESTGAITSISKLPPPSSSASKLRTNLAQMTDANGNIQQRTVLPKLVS
T10 sequence (Q8WXR4 whole entry): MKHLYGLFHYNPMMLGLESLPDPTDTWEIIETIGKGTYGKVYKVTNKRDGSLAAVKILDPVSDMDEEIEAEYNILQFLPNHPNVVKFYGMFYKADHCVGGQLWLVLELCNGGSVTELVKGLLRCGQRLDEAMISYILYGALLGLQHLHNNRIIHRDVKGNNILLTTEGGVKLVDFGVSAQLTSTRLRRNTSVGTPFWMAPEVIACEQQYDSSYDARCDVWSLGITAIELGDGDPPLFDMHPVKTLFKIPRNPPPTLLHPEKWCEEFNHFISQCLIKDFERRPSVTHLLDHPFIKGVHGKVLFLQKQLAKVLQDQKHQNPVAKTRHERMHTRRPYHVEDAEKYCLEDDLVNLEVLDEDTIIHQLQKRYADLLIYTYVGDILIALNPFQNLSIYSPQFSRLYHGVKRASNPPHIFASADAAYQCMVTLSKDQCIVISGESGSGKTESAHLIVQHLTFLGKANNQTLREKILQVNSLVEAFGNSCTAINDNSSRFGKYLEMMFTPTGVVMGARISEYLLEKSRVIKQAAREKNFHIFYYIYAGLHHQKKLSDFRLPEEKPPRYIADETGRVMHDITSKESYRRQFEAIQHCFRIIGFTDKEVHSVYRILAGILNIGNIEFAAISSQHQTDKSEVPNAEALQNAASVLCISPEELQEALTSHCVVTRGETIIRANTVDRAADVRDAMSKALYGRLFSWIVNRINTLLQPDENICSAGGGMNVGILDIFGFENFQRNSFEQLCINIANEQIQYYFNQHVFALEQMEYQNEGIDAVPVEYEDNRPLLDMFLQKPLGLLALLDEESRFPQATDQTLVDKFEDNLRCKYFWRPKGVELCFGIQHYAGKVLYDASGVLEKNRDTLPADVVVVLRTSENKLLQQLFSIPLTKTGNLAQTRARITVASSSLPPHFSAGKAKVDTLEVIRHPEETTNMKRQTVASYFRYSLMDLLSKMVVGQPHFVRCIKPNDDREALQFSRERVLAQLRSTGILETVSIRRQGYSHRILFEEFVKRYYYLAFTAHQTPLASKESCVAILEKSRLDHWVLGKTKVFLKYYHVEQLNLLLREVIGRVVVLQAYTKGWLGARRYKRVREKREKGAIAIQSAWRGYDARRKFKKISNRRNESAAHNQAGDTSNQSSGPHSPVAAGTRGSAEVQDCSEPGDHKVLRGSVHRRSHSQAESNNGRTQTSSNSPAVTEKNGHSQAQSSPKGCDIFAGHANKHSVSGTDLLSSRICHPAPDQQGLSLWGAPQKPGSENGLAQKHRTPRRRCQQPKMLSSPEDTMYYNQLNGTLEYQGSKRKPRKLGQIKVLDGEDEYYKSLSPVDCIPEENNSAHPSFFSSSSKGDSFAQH
T8 sequence (O15146 24-869): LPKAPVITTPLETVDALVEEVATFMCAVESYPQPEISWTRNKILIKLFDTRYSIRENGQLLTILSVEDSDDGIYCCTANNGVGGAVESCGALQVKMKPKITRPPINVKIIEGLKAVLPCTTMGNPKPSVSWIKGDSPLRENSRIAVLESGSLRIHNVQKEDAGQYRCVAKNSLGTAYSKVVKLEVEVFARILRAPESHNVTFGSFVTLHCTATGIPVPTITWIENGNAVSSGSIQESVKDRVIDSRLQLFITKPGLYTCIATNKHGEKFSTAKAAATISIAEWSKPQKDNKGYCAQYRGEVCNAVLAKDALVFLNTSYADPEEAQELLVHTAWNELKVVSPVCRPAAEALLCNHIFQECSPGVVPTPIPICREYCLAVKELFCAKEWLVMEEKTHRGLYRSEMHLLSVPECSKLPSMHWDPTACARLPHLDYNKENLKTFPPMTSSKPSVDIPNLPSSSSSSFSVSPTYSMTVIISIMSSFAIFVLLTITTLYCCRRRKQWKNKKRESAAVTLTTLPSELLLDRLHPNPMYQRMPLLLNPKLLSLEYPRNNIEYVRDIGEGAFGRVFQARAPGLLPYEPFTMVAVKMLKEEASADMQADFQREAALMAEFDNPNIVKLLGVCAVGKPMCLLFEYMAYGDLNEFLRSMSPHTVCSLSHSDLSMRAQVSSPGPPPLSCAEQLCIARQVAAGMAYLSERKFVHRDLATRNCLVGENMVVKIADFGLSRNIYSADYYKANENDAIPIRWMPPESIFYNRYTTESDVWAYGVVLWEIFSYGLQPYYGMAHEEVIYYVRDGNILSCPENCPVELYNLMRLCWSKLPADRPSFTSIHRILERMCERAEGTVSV

SMILES: COc1ccc(-c2cc3nccn3c(Nc3ncccc3C(N)=O)n2)cc1OC.Cl.Cl [BAY61-3606, 2-[7-(3,4-dimethoxyphenyl)-imidazo [1,2-c]pyrimidin-5-ylamino] nicotinamide dihydrochloride, reference compound]
- % binding compared to no inhibitor control [1]: 100%
- % binding compared to no inhibitor control [2]: 78%
- % binding compared to no inhibitor control [3]: 89%
- % binding compared to no inhibitor control [4]: 91%
- % binding compared to no inhibitor control [5]: 89%
- % binding compared to no inhibitor control [6]: 69%
- % binding compared to no inhibitor control [7]: 98%
- % binding compared to no inhibitor control [8]: 76%
- % binding compared to no inhibitor control [9]: 100%
- % binding compared to no inhibitor control [10]: 72%
- % binding compared to no inhibitor control [11]: 90%
- % binding compared to no inhibitor control [12]: 24%
- % binding compared to no inhibitor control [13]: 95%
- % binding compared to no inhibitor control [14]: 95%
- % binding compared to no inhibitor control [15]: 97%
- % binding compared to no inhibitor control [16]: 53%
- % binding compared to no inhibitor control [17]: 96%
- % binding compared to no inhibitor control [18]: 99%
- % binding compared to no inhibitor control [19]: 92%
- % binding compared to no inhibitor control [20]: 92%
- % binding compared to no inhibitor control [21]: 24%
- % binding compared to no inhibitor control [22]: 93%
- % binding compared to no inhibitor control [23]: 1.8%
- % binding compared to no inhibitor control [24]: 87%
- % binding compared to no inhibitor control [25]: 85%
- % binding compared to no inhibitor control [26]: 72%
- % binding compared to no inhibitor control [27]: 87%
- % binding compared to no inhibitor control [28]: 72%
- % binding compared to no inhibitor control [29]: 48%
- % binding compared to no inhibitor control [30]: 100%
- % binding compared to no inhibitor control [31]: 100%
- % binding compared to no inhibitor control [32]: 81%
- % binding compared to no inhibitor control [33]: 17%
- % binding compared to no inhibitor control [34]: 19%
- % binding compared to no inhibitor control [35]: 72%
- % binding compared to no inhibitor control [36]: 33%
- % binding compared to no inhibitor control [37]: 68%
- % binding compared to no inhibitor control [38]: 79%
- % binding compared to no inhibitor control [39]: 44%
- % binding compared to no inhibitor control [40]: 26%

SMILES: COc1ccccc1Nc1nc(-c2ccc(OC)c(OC)c2)cc2nccn12 [BAY derivative 6]
- % binding compared to no inhibitor control [1]: 94%
- % binding compared to no inhibitor control [2]: 100%
- % binding compared to no inhibitor control [3]: 100%
- % binding compared to no inhibitor control [4]: 100%
- % binding compared to no inhibitor control [5]: 57%
- % binding compared to no inhibitor control [6]: 100%
- % binding compared to no inhibitor control [7]: 89%
- % binding compared to no inhibitor control [8]: 100%
- % binding compared to no inhibitor control [9]: 87%
- % binding compared to no inhibitor control [10]: 100%
- % binding compared to no inhibitor control [11]: 89%
- % binding compared to no inhibitor control [12]: 100%
- % binding compared to no inhibitor control [13]: 78%
- % binding compared to no inhibitor control [14]: 100%
- % binding compared to no inhibitor control [15]: 85%
- % binding compared to no inhibitor control [16]: 100%
- % binding compared to no inhibitor control [17]: 100%
- % binding compared to no inhibitor control [18]: 100%
- % binding compared to no inhibitor control [19]: 98%
- % binding compared to no inhibitor control [20]: 100%
- % binding compared to no inhibitor control [21]: 56%
- % binding compared to no inhibitor control [22]: 91%
- % binding compared to no inhibitor control [23]: 60%
- % binding compared to no inhibitor control [24]: 100%
- % binding compared to no inhibitor control [25]: 90%
- % binding compared to no inhibitor control [26]: 100%
- % binding compared to no inhibitor control [27]: 100%
- % binding compared to no inhibitor control [28]: 100%
- % binding compared to no inhibitor control [29]: 100%
- % binding compared to no inhibitor control [30]: 100%
- % binding compared to no inhibitor control [31]: 83%
- % binding compared to no inhibitor control [32]: 100%
- % binding compared to no inhibitor control [33]: 56%
- % binding compared to no inhibitor control [34]: 93%
- % binding compared to no inhibitor control [35]: 98%
- % binding compared to no inhibitor control [36]: 100%
- % binding compared to no inhibitor control [37]: 100%
- % binding compared to no inhibitor control [38]: 100%
- % binding compared to no inhibitor control [39]: 98%
- % binding compared to no inhibitor control [40]: 100%
